US20090275610A1, “TRICYCLIC OPIOID MODULATORS” (priority 2005, published 2009)
Where two headings read alike, the source gives them in different places.

Legend:
mu opioid receptor = molecular target: T1, mu opioid receptor (Rattus norvegicus, UniProt P33535); assay: Rat brain mu opioid receptor binding assay; settings: rat forebrain membranes, [3H]DAMGO, 25° C., 2.5 h
T1 construct: the forebrains were homogenized in Tris buffer in a Teflon®-glass homogenizer; from tissue; host or cells: forebrain of male Wistar rats (particulate membrane preparation)
Experimental: Rat Brain Mu Opioid Receptor Binding Assay
(§1) Procedure: Male, Wistar rats (150-250 g, VAF, Charles River, Kingston, N.Y.) were killed by CO2, and their brains removed and placed immediately in ice cold Tris HCl buffer (50 mM, pH 7.4). The forebrains were separated from the remainder of the brain by a coronal transection, beginning dorsally at the colliculi and passing ventrally through the midbrain-pontine junction. After dissection, the forebrains were homogenized in Tris buffer in a Teflon®-glass homogenizer. The homogenate was diluted to a concentration of 1 g of forebrain tissue per 80 mL Tris and centrifuged at 39,000×g for 10 min. The pellet was resuspended in the same volume of Tris buffer containing 5 mM MgCl2 with several brief pulses from a Polytron homogenizer. This particulate preparation was used for the delta opioid binding assays.
(§2) Analysis: The data from the scintillation counter were used to calculate either the % inhibition compared to control binding (when only a single concentration of test compound was evaluated) or a Ki value (when a range of concentrations tested). Percent inhibition was calculated as: [(total dpm−test compound dpm)/(total dpm−nonspecific dpm)]*100. Kd and Ki values were calculated using GraphPad PRISM data analysis program.

delta opioid receptor = molecular target: T2, delta opioid receptor (Rattus norvegicus, UniProt P33533); assay: Rat brain delta opioid receptor binding assay; settings: rat forebrain membranes, [3H]DPDPE or [3H]naltrindole, 25° C., 2.5 h
T2 construct: the forebrains were homogenized in Tris buffer in a Teflon®-glass homogenizer; from tissue; host or cells: forebrain of male Wistar rats (particulate membrane preparation)
Experimental: Rat Brain Delta Opioid Receptor Binding Assay
as §1
as §2, with “concentrations was” for “concentrations”

[1] = molecular target: T3, delta opioid receptor (NG108-15 cell membranes) (Mus musculus, UniProt P32300); assay: [35S]GTPγS binding assay in NG108-15 cell membranes (delta opioid); assay type: biochemical; settings: delta GTPγS binding EC50 (nM)
T3 construct: NG108-15 cell membranes were purchased from Applied Cell Sciences (Rockville, Md.); host or cells: NG108-15 cell membranes (purchased)
Experimental: Functional Assay: [^35S]GTPγS Binding Assay in NG108-15 Cell Membranes (Delta Opioid)
Methods: NG108-15 cell membranes were purchased from Applied Cell Sciences (Rockville, Md.). A sample (8 mg/mL) of membrane protein suspended in 10 mM TRIS-HCl pH 7.2, 2 mM EDTA, 10% sucrose. Membranes were maintained at 4-8° C. A 1 mL volume of membranes was added into 10 mL cold binding assay buffer. The assay buffer contained 50 mM Tris, pH 7.6, 5 mM MgCl2, 100 mM NaCl, 1 mM DTT and 1 mM EGTA. The membrane suspension was homogenized twice with a Polytron, and centrifuged at 3000 rpm for 10 min. The supernatant was then centrifuged at 18,000 rpm for 20 min. Ten mL assay buffer was added into the pellet containing tube. The pellet and buffer were mixed with a Polytron.
Incubation procedure: The pellet membranes (75 μg/mL) were preincubated with SPA (10 mg/mL) at 25° C. for 45 min in the assay buffer. The SPA (5 mg/mL) coupled with membranes (37.5 μg/mL) was then incubated with 0.1 nM [^35S]GTPγS in the same Tris buffer containing 100 μM GDP in total volume of 200 μL. Increasing concentrations of receptor agonists were used to stimulate [^35S]-GTPγS binding. The basal binding was tested in the absence of agonists and non-specific binding was tested in the presence of 10 μM unlabeled GTPγS. The data were analyzed on a Packard Top Count.
% of Basal=(stimulated−non specific)*100/(basal−non specific).
EC50 values were calculated using GraphPad Prism.

[2] = rMOR (Ki, nM): Rat mu opioid receptor binding constant
[3] = rDOR (Ki, nM): Rat delta opioid receptor binding constant
[4] = read-out: rMOR (Ki, nM): Rat mu opioid receptor binding constant
[5] = read-out: rDOR (Ki, nM): Rat delta opioid receptor binding constant

T2 sequence (P33533 whole entry): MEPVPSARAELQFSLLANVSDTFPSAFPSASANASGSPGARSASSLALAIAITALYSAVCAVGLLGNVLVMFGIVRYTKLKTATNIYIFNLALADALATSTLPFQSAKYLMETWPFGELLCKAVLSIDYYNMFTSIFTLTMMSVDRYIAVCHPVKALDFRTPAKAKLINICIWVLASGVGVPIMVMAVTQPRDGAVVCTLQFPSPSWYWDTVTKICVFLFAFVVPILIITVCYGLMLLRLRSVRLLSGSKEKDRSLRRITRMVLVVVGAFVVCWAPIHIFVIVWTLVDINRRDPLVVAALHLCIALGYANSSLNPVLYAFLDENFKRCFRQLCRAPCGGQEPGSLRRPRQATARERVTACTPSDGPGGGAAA
T1 sequence (P33535 whole entry): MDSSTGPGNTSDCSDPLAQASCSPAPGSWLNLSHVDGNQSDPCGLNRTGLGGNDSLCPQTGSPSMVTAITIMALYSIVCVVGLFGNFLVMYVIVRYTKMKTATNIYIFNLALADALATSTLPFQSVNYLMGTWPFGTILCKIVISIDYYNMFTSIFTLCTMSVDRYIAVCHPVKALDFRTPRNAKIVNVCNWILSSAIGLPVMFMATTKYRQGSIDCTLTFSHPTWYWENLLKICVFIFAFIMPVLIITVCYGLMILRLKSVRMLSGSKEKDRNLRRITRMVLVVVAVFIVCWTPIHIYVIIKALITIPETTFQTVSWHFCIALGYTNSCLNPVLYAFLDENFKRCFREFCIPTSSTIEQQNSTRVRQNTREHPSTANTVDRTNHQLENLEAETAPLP
T3 sequence (P32300 whole entry): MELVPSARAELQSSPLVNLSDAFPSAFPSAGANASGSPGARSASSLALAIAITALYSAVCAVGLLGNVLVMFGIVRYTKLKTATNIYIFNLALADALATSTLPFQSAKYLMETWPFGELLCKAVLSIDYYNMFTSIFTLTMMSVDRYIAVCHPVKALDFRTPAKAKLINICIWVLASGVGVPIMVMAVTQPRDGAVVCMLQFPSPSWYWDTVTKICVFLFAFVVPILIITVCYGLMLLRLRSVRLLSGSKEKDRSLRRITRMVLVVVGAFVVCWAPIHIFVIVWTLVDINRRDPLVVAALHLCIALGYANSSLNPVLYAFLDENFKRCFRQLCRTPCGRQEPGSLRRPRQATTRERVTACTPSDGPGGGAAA

SMILES	Ki (mu opioid receptor; [2]) [nM]	Ki (delta opioid receptor; [3]) [nM]	Ki (mu opioid receptor; [4]) [nM]	Ki (delta opioid receptor; [5]) [nM]	EC50 [1] [nM]
O=C(N1C2CCC1CC(=C1c3ccccc3Oc3c(O)cccc31)C2)C(F)(F)F (single isomer, unassigned) [Cpd 5, 2,2,2-Trifluoro-1-[3-(4-hydroxy-xanthen-9-ylidene)-8-azabicyclo[3.2.1]oct-8-yl]-ethanone]	5620	2110			
O=C(N1C2CCC1CC(=C1c3ccccc3Oc3c(O)cccc31)C2)C(F)(F)F (single isomer, unassigned) [Cpd 6, 2,2,2-Trifluoro-1-[3-(4-hydroxy-xanthen-9-ylidene)-8-azabicyclo[3.2.1]oct-8-yl]-ethanone]	> 10000	8500			
Oc1cccc2c1Oc1ccccc1C2=C1CC2CCC(C1)N2 (single isomer, unassigned) [Cpd 9, 9-(8-Azabicyclo[3.2.1]oct-3-ylidene)-9H-xanthen-4-ol]	63.6	68.2			
NC(=O)c1cccc2c1Oc1ccccc1C2=C1C[C@H]2CC[C@@H](C1)N2C(=O)C(F)(F)F (single isomer, unassigned) [Cpd 36, (+)-9-[8-(2,2,2-Trifluoroacetyl)-8-azabicyclo[3.2.1]oct-3-ylidene]-9H-xanthene-4-carboxylic acid amide]			> 10000	1790	
NC(=O)c1cccc2c1Oc1ccccc1C2=C1C[C@H]2CC[C@@H](C1)N2C(=O)C(F)(F)F (single isomer, unassigned) [Cpd 38, (−)-9-[8-(2,2,2-Trifluoroacetyl)-8-azabicyclo[3.2.1]oct-3-ylidene]-9H-xanthene-4-carboxylic acid amide]			> 10000	6440	
NC(=O)c1cccc2c1Oc1ccccc1C2=C1CC2CCC(C1)N2 (single isomer, unassigned) [Cpd 39, 9-(8-Azabicyclo[3.2.1]oct-3-ylidene)-9H-xanthene-4-carboxylic acid amide]	96.4	31.9			1240
N=C(NO)c1cccc2c1Oc1ccccc1C2=C1CC2CCC(C1)N2 (single isomer, unassigned) [Cpd 42, 9-(8-Aza-bicyclo[3.2.1]oct-3-ylidene)-N-hydroxy-9H-xanthene-4-carboxamidine]	56.5			237	
N=C(NO)c1cccc2c1Oc1ccccc1C2=C1CC2CCC(C1)N2 (single isomer, unassigned) [Cpd 43, 9-(8-Aza-bicyclo[3.2.1]oct-3-ylidene)-N-hydroxy-9H-xanthene-4-carboxamidine]			> 10000	> 10000	
O=C(Nc1ccccc1)c1cccc2c1Oc1ccccc1C2=C1CC2CCC(C1)N2 (single isomer, unassigned) [Cpd 47, 9-(8-Azabicyclo[3.2.1]oct-3-ylidene)-9H-xanthene-4-carboxylic acid phenylamide]	293	250			
Oc1cccc2c1Oc1ccccc1C2=C1CC2CCC(C1)N2Cc1cccnc1 (single isomer, unassigned) [Cpd 49, 9-(8-Pyridin-3-ylmethyl-8-azabicyclo[3.2.1]oct-3-ylidene)-9H-xanthen-4-ol]	443	62.6			
CN1C2CCC1CC(=C1c3ccccc3Oc3c(O)cccc31)C2 (single isomer, unassigned) [Cpd 52, 9-(8-Methyl-8-azabicyclo[3.2.1]oct-3-ylidene)-9H-xanthen-4-ol]	1320	323			
O=C(NCc1ccccc1)c1cccc2c1Oc1ccccc1C2=C1CC2CCC(C1)N2 (single isomer, unassigned) [Cpd 53, 9-(8-Azabicyclo[3.2.1]oct-3-ylidene)-9H-xanthene-4-carboxylic acid benzylamide]	2030	1130			
O=C(NCCc1ccccc1)c1cccc2c1Oc1ccccc1C2=C1CC2CCC(C1)N2 (single isomer, unassigned) [Cpd 55, 9-(8-Azabicyclo[3.2.1]oct-3-ylidene)-9H-xanthene-4-carboxylic acid phenethylamide]	200	100			
Oc1cccc2c1Oc1ccccc1C2=C1CC2CCC(C1)N2Cc1ccoc1 (single isomer, unassigned) [Cpd 57, 9-(8-Furan-3-ylmethyl-8-azabicyclo[3.2.1]oct-3-ylidene)-9H-xanthen-4-ol]	36.5	246			
Oc1cccc2c1Oc1ccccc1C2=C1CC2CCC(C1)N2Cc1ccccn1 (single isomer, unassigned) [Cpd 59, 9-(8-Pyridin-2-ylmethyl-8-azabicyclo[3.2.1]oct-3-ylidene)-9H-xanthen-4-ol]	0.39	0.07			
Oc1cccc2c1Oc1ccccc1C2=C1CC2CCC(C1)N2Cc1ccccn1 (single isomer, unassigned) [Cpd 60, 9-(8-Pyridin-2-ylmethyl-8-azabicyclo[3.2.1]oct-3-ylidene)-9H-xanthen-4-ol]	0.01	0.01			
COc1cccc2c1Oc1ccccc1C2=C1CC2CCC(C1)N2 [Cpd 1]			1790	3800	
COC(=O)c1cccc2c1Oc1ccccc1C2=C1CC2CCC(C1)N2C(=O)C(F)(F)F [Cpd 7, 9-[8-(2,2,2-Trifluoroacetyl)-8-azabicyclo[3.2.1]oct-3-ylidene]-9H-xanthene-4-carboxylic acid methyl ester]	> 10000	> 10000			
CN(C)C(=O)c1cccc2c1Oc1ccccc1C2=C1CC2CCC(C1)N2 [Cpd 11, 9-(8-Azabicyclo[3.2.1]oct-3-ylidene)-9H-xanthene-4-carboxylic acid dimethylamide]	471	3110			
CN(C)CCNC(=O)c1cccc2c1Oc1ccccc1C2=C1CC2CCC(C1)N2 [Cpd 15, 9-(8-Azabicyclo[3.2.1]oct-3-ylidene)-9H-xanthene-4-carboxylic acid (2-dimethylaminoethyl)-amide]	336	1420			
CN1C2CCCC1CC(=C1c3ccccc3Oc3c(O)cccc31)C2 [Cpd 17, 9-(9-Methyl-9-azabicyclo[3.3.1]non-3-ylidene)-9H-xanthen-4-ol]	221	132			
CN1CCC(=C2c3ccccc3Oc3c(O)cccc32)CC1 [Cpd 18, 9-(1-Methyl-piperidin-4-ylidene)-9H-xanthen-4-ol]	4610	330			
Oc1cccc2c1Oc1ccccc1C2=C1CC2CCC(C1)N2Cc1csc2ccccc12 [Cpd 33]			168	137	
Oc1cccc2c1Oc1ccccc1C2=C1CC2CCC(C1)N2Cc1cccc2cnccc12 [Cpd 35]			286	180	
Clc1ccc(Nc2cccc3c2Oc2ccccc2C3=C2CC3CCC(C2)N3)cc1 [Cpd 61, [9-(8-Azabicyclo[3.2.1]oct-3-ylidene)-9H-xanthen-4-yl]-(4-chlorophenyl)-amine]	3160	395			
c1cncc(Nc2cccc3c2Oc2ccccc2C3=C2CC3CCC(C2)N3)c1 [Cpd 62, [9-(8-Azabicyclo[3.2.1]oct-3-ylidene)-9H-xanthen-4-yl]-pyridin-3-yl-amine]	159	108			
c1ccc(Nc2cccc3c2Oc2ccccc2C3=C2CC3CCC(C2)N3)cc1 [Cpd 64, [9-(8-Azabicyclo[3.2.1]oct-3-ylidene)-9H-xanthen-4-yl]-phenylamine]	2420	862			
